How the values were obtained:
Experiment in all cases: relative viability (nuclei count vs DMSO), 5 days (fraction); higher = more cells survive
[1] = compound: COc1cc2ncn(-c3cc(OCc4ccccc4C(F)(F)F)c(C(N)=O)s3)c2cc1OC + CS(=O)(=O)CCNCc1ccc(-c2ccc3ncnc(Nc4ccc(OCc5cccc(F)c5)c(Cl)c4)c3c2)o1 [Lapatinib] (partner 2 µM)
In short: (§1)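 Relative viability was taken as the ratio of nuclei in treated wells to nuclei in vehicle wells. Lung cancer cell lines in 1536-well plates received compounds by pin tool one day after seeding, either one drug alone or a fixed anchor-drug dose plus five library-drug doses (not always all listed) in √10 steps. Nuclei were counted on 4× images after 5 days of treatment, and values are medians of duplicate plates.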

[2] = compound: COc1cc2ncn(-c3cc(OCc4ccccc4C(F)(F)F)c(C(N)=O)s3)c2cc1OC + C[C@@H](Oc1cc(-c2cnn(C3CCNCC3)c2)cnc1N)c1c(Cl)ccc(F)c1Cl [Crizotinib] (partner 1 µM)
In short: as §1

[3] = compound: COc1cc2ncn(-c3cc(OCc4ccccc4C(F)(F)F)c(C(N)=O)s3)c2cc1OC + Cc1cc(Nc2cc(N3CCN(C)CC3)nc(Sc3ccc(NC(=O)C4CC4)cc3)n2)n[nH]1 [Tozasertib] (partner 0.1 µM)
In short: as §1

[4] = compound: COc1cc2ncn(-c3cc(OCc4ccccc4C(F)(F)F)c(C(N)=O)s3)c2cc1OC + Nc1ncn([C@H]2C[C@H](O)[C@@H](CO)O2)c(=O)n1 [Decitabine] (partner 2 µM)
In short: as §1

Cell Line	relative viability ([1]; first compound 0.05 µM)	relative viability ([1]; first compound 0.1581 µM)	relative viability ([1]; first compound 0.5 µM)	relative viability ([1]; first compound 1.581 µM)	relative viability ([1]; first compound 5 µM)	relative viability ([2]; first compound 0.05 µM)	relative viability ([2]; first compound 0.1581 µM)	relative viability ([2]; first compound 0.5 µM)	relative viability ([2]; first compound 1.581 µM)	relative viability ([2]; first compound 5 µM)	relative viability ([3]; first compound 0.05 µM)	relative viability ([3]; first compound 0.1581 µM)	relative viability ([3]; first compound 0.5 µM)	relative viability ([3]; first compound 1.581 µM)	relative viability ([3]; first compound 5 µM)	relative viability ([4]; first compound 0.05 µM)	relative viability ([4]; first compound 0.1581 µM)	relative viability ([4]; first compound 0.5 µM)	relative viability ([4]; first compound 1.581 µM)	relative viability ([4]; first compound 5 µM)
201T	1.04	1.03	1.01	0.708	0.299	1.05	1.08	0.967	0.878	0.293	1.03	1.09	0.809	0.426	0.324	0.866	0.877	0.851	0.562	0.251
A-427	1.02	1.12	1	0.418	0.116	0.917	0.826	0.587	0.163	0.124	0.195	0.188	0.176	0.162	0.142	0.619	0.6	0.498	0.399	0.205
ABC-1	1.18	0.723	1.11	1.14	1.2	1.34	0.988	0.875	0.152	0.291	0.219	0.223	0.155	0.251	0.255	1.21	1.18	0.761	0.513	0.357
BEN	0.696	0.526	0.56	0.256	0.212	0.814	0.839	0.687	0.268	0.526	0.514	0.498	0.5	0.56	0.47	0.816	0.828	0.526	0.403	0.408
CAL-12T	0.647	0.708	0.379	0.228	0.156	0.705	0.377	0.207	0.126	0.124	0.316	0.26	0.208	0.164	0.2					
COR-L23	0.891	1.01	0.798	0.143	0.107	0.667	0.671	0.3	0.118	0.12	0.213	0.189	0.13	0.143	0.139	0.435	0.394	0.305	0.145	0.159
COR-L 105	0.373	0.365	0.277	0.255	0.292	0.978	0.831	0.658	0.215	0.264	0.43	0.383	0.392	0.284	0.277	0.65	0.601	0.572	0.438	0.278
Calu-6	1.02	0.872	0.315	0.129	0.128	0.778	0.755	0.288	0.107	0.106										
ChaGo-K-1						1.07	0.944	0.831	0.434	0.38	0.212	0.219	0.197	0.251	0.184	0.567	0.504	0.43	0.255	0.162
EBC-1	0.195	0.216	0.199	0.172	0.176	0.19	0.204	0.17	0.169	0.14										
EKVX	0.176	0.265	0.206	0.165	0.178	1.04	1.04	0.731	0.225	0.563	0.371	0.408	0.311		0.229	0.324	0.381	0.273	0.175	0.204
EMC-BAC-2	0.998	0.944	0.786	0.228	0.216	0.893	0.855	0.789	0.439	0.154	0.332	0.314	0.223	0.215	0.245	1.12	1.05	0.963	0.504	0.253
EPLC-272H	0.976	0.867	0.527	0.111	0.0981	0.86	0.709	0.323	0.0912	0.134		0.306	0.169	0.148	0.147	0.356	0.362	0.168	0.113	0.133
H3255	0.24	0.261	0.206	0.17	0.149	0.777	0.981	0.574	0.238	0.229	0.563	0.722	0.451		0.41	0.518	0.674	0.625	0.312	0.294
HARA	0.74	0.797	0.7	0.169	0.0753	1.18	0.981	0.786	0.275	0.119	0.091	0.117	0.117	0.111	0.0871	0.383		0.367	0.202	0.118
HCC-15	0.861	0.731	0.602	0.135	0.114	0.855	0.716	0.461	0.152	0.11	0.509	0.394	0.138	0.151	0.139	0.592	0.581	0.248	0.176	0.119
HCC-44	1.06	0.976	0.987	0.0934	0.171	0.818	0.815	0.503	0.123	0.104	0.983	0.903	0.242	0.346	0.199	0.987	0.984	0.906	0.433	0.258

Cell Line	relative viability ([1]; first compound 0.05 µM)	relative viability ([1]; first compound 0.1581 µM)	relative viability ([1]; first compound 0.5 µM)	relative viability ([1]; first compound 1.581 µM)	relative viability ([1]; first compound 5 µM)	relative viability ([2]; first compound 0.05 µM)	relative viability ([2]; first compound 0.1581 µM)	relative viability ([2]; first compound 0.5 µM)	relative viability ([2]; first compound 1.581 µM)	relative viability ([2]; first compound 5 µM)	relative viability ([3]; first compound 0.05 µM)	relative viability ([3]; first compound 0.1581 µM)	relative viability ([3]; first compound 0.5 µM)	relative viability ([3]; first compound 1.581 µM)	relative viability ([3]; first compound 5 µM)	relative viability ([4]; first compound 0.05 µM)	relative viability ([4]; first compound 0.1581 µM)	relative viability ([4]; first compound 0.5 µM)	relative viability ([4]; first compound 1.581 µM)	relative viability ([4]; first compound 5 µM)
HCC-78	0.75	0.429	0.542	0.566	0.804	0.314	0.345	0.245	0.257	0.257	0.517	0.345	0.325	0.222	0.292	0.688	0.652	0.671	0.473	0.446
HCC-366	1.11	1.02	0.359	0.0141	0.0131	0.788	0.545	0.117	0.013	0.0129	0.101	0.12	0.0568	0.0457	0.046	0.255	0.372	0.326	0.0359	0.0203
HCC-827	0.165	0.23	0.207	0.13	0.206	0.925	0.871	0.698	0.341	0.287	0.411	0.397	0.37	0.344	0.313	0.344	0.346	0.328	0.234	0.28
HOP-62	1.01	1.08	0.829	0.233	0.121	0.765	0.935	0.824	0.206	0.101	0.361	0.334	0.241	0.175	0.201	0.227	0.266	0.237	0.186	0.141
IA-LM	0.617	0.49	0.0998	0.083	0.0955	0.717	0.395	0.198	0.0759	0.0777										
LCLC-103H						0.999	1.11	0.851	0.523	0.267	0.395	0.457	0.33	0.252	0.217	0.729	0.785	0.657	0.355	0.257
NCI-H441						0.634	0.617	0.287	0.152	0.218	0.71	0.481	0.232	0.236	0.336	0.229	0.243	0.18	0.137	0.164
NCI-H1299	0.984	0.92	0.599	0.314	0.312	0.982	0.939	0.572	0.305	0.329										
NCI-H1395	0.928	1.37	0.818	0.354	0.41						0.774	0.898	0.636	0.36	0.343	0.736	0.753	0.596	0.373	0.342
NCI-H1563	1.04	1.02	0.877	0.748	0.588	0.832	0.968	0.872	0.661	0.582										
NCI-H1648											0.455	0.371	0.157	0.235	0.182	0.473	0.602	0.345	0.235	0.225
NCI-H1703	1.28	1.44	0.564	0.17	0.235	0.962	0.813	0.144	0.117	0.206										
NCI-H1792	0.935	0.834	0.868	0.24	0.0845	1.05	0.937	0.752	0.459	0.0845						0.503	0.65	0.411	0.0575	0.0384
NCI-H1793	0.741	0.84	0.409	0.306	0.209						0.34	0.296	0.292	0.239	0.191	0.244	0.469	0.408	0.223	0.137
NCI-H2228	1.26	0.998	0.297	0.162	0.251	0.542	0.554	0.31	0.207	0.308	0.291	0.258	0.133	0.178	0.201					
NCI-H2342											0.611	0.54	0.333	0.334	0.337	0.628	0.701	0.626	0.569	0.528

From the supplement of paper PMC10307832
